US20130052172A1, “METHODS FOR DIAGNOSING AND TREATING CARDIAC DEFECTS” (priority 2011, published 2013)
“Also recorded” adds a separate entry of the source. Positions of bridges follow the written chain, without caps; N, C: chain ends. Non-standard residues stand in square brackets, D forms with d. Residues, ends and D or L forms follow the SMILES beside them. *: point of attachment. Ileψ(thiazoline)Cys = CC[C@H](C)[C@H](N)C1=N[C@H](C(=O)*)CS1; dOrn = NCCC[C@@H](N)C(=O)O

Experiments:
isolated hearts = test: In vitro global ischemia/reperfusion of isolated perfused hearts, infarct size and recovery of LVDP; design: species or system rat; conditions: for effect of inhibitor alone on cardioprotection: inhibitor perfused prior to ischemia/reperfusion, no vancomycin
Protocol: (§1) For in vitro ischemia/reperfusion studies, hearts were perfused retrogradely, as described previously in Baker, J. et al. (Am. J. Physiol. Heart Circ. Physiol., 2000), the entirety of which is incorporated herein by reference. Briefly, hearts were perfused with modified Krebs-Henseleit buffer (120 mM NaCl, 25 mM NaHCO3, 4.7 mM KCl, 1.2 mM KH2PO4, 1.20 mM MgSO4, 11 mM glucose, and 1.8 mM CaCl2) bubbled with 95% O2-5% CO2 for a 40-minute stabilization period and subjected to 25 minutes of global no-flow ischemia, followed by 180 minutes of reperfusion. Before use, all perfusion fluids were filtered through cellulose acetate membranes with a pore size of 5.0 μm to remove particulate matter. Hearts were kept in temperature-controlled chambers to maintain myocardial temperature at 37° C. A balloon connected to a pressure transducer was inserted into the left ventricle to monitor cardiac function. For some experiments, hearts were stabilized for 25 minutes and then perfused with vancomycin or a mixture of antibiotics for 15 minutes before ischemia/reperfusion. During the initial 40 minute reperfusion period, recovery of mechanical function was measured as left ventricular developed pressure (LVDP) under steady-state conditions and expressed as a percentage of preischemic LVDP. At the end of the 3 hour reperfusion period, hearts were processed and stained with 2,3,5-triphenyltetrazolium chloride dye for IS determination.

rats = test: Myocardial ischemia/reperfusion by the protocol of example 3 (model not given); format: in vivo, rat; conditions: Dahl S rats, single antibiotic in drinking water (60 or 120 mg/kg/day)
Excerpt: In the following example, methods for assaying myocardial infarction in vitro and in vivo in rats as determined by ischemia/reperfusion studies are described.
(§2) An anesthetized rat model was used for in vivo ischemia/reperfusion studies using the general surgical protocol and determination of infarct size (IS) described in “K(ATP) opener-induced delayed cardioprotection: involvement of sarcolemmal and mitochondrial K(ATP) channels, free radicals and MEK½” (Gross, E. et al., J. Mol. Cell. Cardiol. 35, 985-992, 2003), the entirety of which is incorporated herein by reference. Briefly, following anesthesia, a tracheotomy for artificial ventilation was performed, with the left common carotid artery cannulated for blood pressure and heart rate measurements. A thoracotomy was performed at the fifth intercostal space, the pericardium was excised, and a silk ligature was placed distal to the left atrial appendage that spanned to the sternal portion of the left ventricle, which included the left anterior descending coronary artery. Occlusion of the area described [area at risk (AAR)] was created by placing ends of the ligature through a polypropylene tube and fixing the snare to the epicardial surface with a hemostat. After 30 min, the hemostat was released to reperfuse the AAR. Following 2 h of reperfusion, the ligature was again occluded, and the AAR was determined by patent-blue negative staining. The heart was then excised, cross-sectioned into 4 to 5 slices, and separated into normal zone and AAR. Pieces were incubated in 1% 2,3,5-triphenyltetrazolium chloride to determine IS. The heart was then incubated overnight in 10% formaldehyde, and infarcted tissue was dissected from the AAR. IS was expressed as a percentage of the AAR (IS/AAR). Leptin (0.12 μg/kg) was administered intravenously as a bolus at 24 and 12 h before ischemia. Amino acids were administered intravenously as a bolus at 24 and 12 hours before ischemia or dissolved in the drinking water and given 48 hours before ischemia.
as §1

rat heart = conditions: pharmacologic preconditioning (Baker 2007, 2008); cited from earlier work
leptin = test: Plasma cytokine analysis (leptin); format: in vivo, rat; conditions: Dahl S rats fed 15 ml/rat/d for 14 d, with or without leptin
Protocol: The concentration of cytokines in blood of rats treated with vancomycin was quantified to identify antibiotic-induced changes. […] Blood samples were kept on ice for 30 min and then centrifuged at 1000 g for 10 min at 4° C. to obtain plasma. Plasma samples were then analyzed to determine the concentration of 23 cytokines (Eve Technologies, Calgary, AB, Canada). Antibiotic was administered continuously via drinking water as described in example 1.

Dahl S rats = test: In vivo regional myocardial ischemia/reperfusion, infarct size (IS/AAR); design: species or system rat; conditions: vancomycin 15 mg/kg/day for 72 hours, thrombopoietin i.v. 15 minutes prior to ischemia
Excerpt: as §2

Q: Which results are given for `N#C/C(=C/c1ccc(O)c(O)c1)C(=O)NCc1ccccc1` [AG-490]?
A: effect on ability of vancomycin to reduce myocardial necrosis and enhance ventricular function (isolated hearts; JAK-2 inhibitor 1 μM perfused prior to ischemia/reperfusion, hearts of vancomycin-treated rats): partially abolished the ability of vancomycin to reduce myocardial necrosis and to enhance ventricular function; effect of inhibitor alone on cardioprotection (isolated hearts): no effect on cardioprotection

Q: For `COc1ccc(Cl)cc1C(=O)NCCc1ccc(S(=O)(=O)NC(=O)NC2CCCCC2)cc1` [Glibenclamide, glibenclamide], which “effect on ability of vancomycin to reduce myocardial necrosis and enhance ventricular function” value (isolated hearts; KATP channel blocker 3 μM perfused prior to ischemia/reperfusion) is on record?
A: abolished the ability of vancomycin to reduce myocardial necrosis and to enhance ventricular function

Q: What about the “effect of inhibitor alone on cardioprotection” value (isolated hearts) of the same compound?
A: no effect on cardioprotection

Q: With `COc1cccc(-c2cc(=O)c3ccccc3o2)c1N` [PD98059] as the compound, how does the “effect of inhibitor alone on cardioprotection” value (isolated hearts) read?
A: no effect on cardioprotection

Q: And the “effect on ability of vancomycin to reduce myocardial necrosis and enhance ventricular function” value (isolated hearts; p42/44 MAPK inhibitor 10 μM perfused prior to ischemia/reperfusion)?
A: abrogated the ability of vancomycin to reduce myocardial necrosis and to enhance ventricular function

Q: Which results are given for `C[S+]([O-])c1ccc(-c2nc(-c3ccncc3)c(-c3ccc(F)cc3)[nH]2)cc1` (centres unmarked) [SB 203580]?
A: effect of inhibitor alone on cardioprotection (isolated hearts): no effect on cardioprotection; effect on ability of vancomycin to reduce myocardial necrosis and enhance ventricular function (isolated hearts; p38 MAPK inhibitor 15 μM perfused prior to ischemia/reperfusion): abolished the ability of vancomycin to reduce myocardial necrosis and to enhance ventricular function

Q: For `CC[C@H](C)[C@H](N)C1=N[C@H](C(=O)N[C@@H](CC(C)C)C(=O)N[C@H](CCC(=O)O)C(=O)N[C@H](C(=O)N[C@H]2CCCCNC(=O)[C@H](CC(N)=O)NC(=O)[C@@H](CC(=O)O)NC(=O)[C@H](Cc3cnc[nH]3)NC(=O)[C@@H](Cc3ccccc3)NC(=O)[C@H]([C@@H](C)CC)NC(=O)[C@@H](CCCN)NC2=O)[C@@H](C)CC)CS1` [bacitracin] ({Ileψ(thiazoline)Cys}-L[dE]IK[dOrn]I[dF]H[dD]N; lactam 4-C), which “effect on myocardial infarct size” value (rats) is on record?
A: did not induce protection

Q: For `[H]/N=C(/N)N[C@H]1[C@H](O)[C@@H](O)[C@H](O[C@@H]2O[C@@H](C)[C@](O)(C=O)[C@H]2O[C@@H]2O[C@@H](CO)[C@H](O)[C@@H](O)[C@@H]2NC)[C@@H](N/C(N)=N\[H])[C@@H]1O` [streptomycin], which “effect on myocardial infarct size” value (rats) is on record?
A: reduce myocardial infarct size

Q: With “erythropoietin: pharmacologic preconditioning agent, cited from Baker 2007 (darbepoetin alfa paper)” as the compound, how does the “reduction in IS” value (rat heart) read?
A: 39%

Q: Which “effect on leptin levels in blood” value (leptin) does the source give for “leptin: 16-kDa, 167-aa polypeptide synthesized and secreted into the circulation primarily by white adipocytes” here?
A: no effect on leptin levels

Q: And the “effect on IS / myocardial infarction” value (isolated hearts; Dahl S rats fed 15 ml/rat/d for 14 d, with or without leptin 0.12 μg/kg)?
A: no effect on IS

Q: And the “effect of leptin in the absence of vancomycin pretreatment” value (isolated hearts; leptin 0.12 μg/kg i.v. at 24 and 12 h before ischemia/reperfusion)?
A: had no effect

Q: And the “effect on probiotic juice-induced cardioprotection” value (isolated hearts; leptin 0.12 μg/kg i.v. at 24 and 12 h before ischemia/reperfusion, probiotic juice-fed rats)?
A: abolished probiotic juice-induced cardioprotection; also recorded: reversed

Q: What about the “effect on decrease in IS and increase in recovery of LVDP conferred by vancomycin” value (isolated hearts; leptin 0.12 μg/kg i.v. at 24 and 12 h before ischemia/reperfusion, vancomycin-treated rats) of the same compound?
A: abolished the decrease in IS and increase in recovery of LVDP conferred by vancomycin treatment; also recorded: reversed cardioprotection by vancomycin

Q: For neomycin, which “effect on myocardial infarct size” value (rats) is on record?
A: reduce myocardial infarct size

Q: For polymyxin B, which “effect on myocardial infarct size” value (rats) is on record?
A: did not induce protection

Q: Which “reduction in IS” value (rat heart) does the source give for “thrombopoietin: agent of classical pharmacologic preconditioning; human thrombopoietin (Baker 2008)” here?
A: 34%

Q: And the “decrease in infarct size” value (Dahl S rats)?
A: 25%
